Converted amounts (≈) assume the structure as drawn.
Key:
BaF3 [1] = test: Anti-proliferative activity against mouse BaF3 cells expressing EGFR […]/T790M/C797S mutant incubated for 3 days by Cell Titer Glo 2.0 assay; assay type: functional; conditions: BaF3, 72 h, time 3 day
BaF3 [2] = test: Anti-proliferative activity against mouse BaF3 cells expressing wild-type EGFR incubated for 3 days by Cell Titer Glo 2.0 assay; assay type: functional; conditions: BaF3, 72 h, time 3 day
[3] = Metabolic stability in human liver microsomes assessed as compound remaining; assay type: ADME, Microsome
[4] = Solubility of compound at pH 1.2; assay type: physicochemical; conditions: buffer
[5] = Lipophilicity, logD of compound; assay type: physicochemical; conditions: octanol/water
[6] = Plasma protein binding in mouse; assay type: ADME, cell-free; conditions: read-out: PPB
[7] = Apparent permeability in MDCK cells; assay type: ADME, cell-based, Canis lupus familiaris; conditions: dog
[8] = Metabolic stability in mouse liver microsomes assessed as compound remaining; assay type: ADME, Microsome
BaF3 [9] = test: Anti-proliferative activity against mouse BaF3 cells expressing EGFR L858R/T790M/C797S mutant incubated for 3 days by Cell Titer Glo 2.0 assay; assay type: functional; conditions: BaF3, 72 h, time 3 day
[10] = Plasma protein binding in human; assay type: ADME, cell-free; conditions: read-out: PPB
[11] = Solubility of compound at pH 6.8; assay type: physicochemical; conditions: buffer
[12] = Toxicity in Balb/c nude mouse allografted with mouse BaF3 cells expressing EGFR […]/T790M/[…] mutant assessed as signs of toxicity at 25 to 100 mg/kg, po qd for 5 days consecutively; assay type: organism-based; conditions: in vivo, 120 h, dose 25-100 mg/kg, time 5 day
[13] = Toxicity in Balb/c nude mouse allografted with mouse BaF3 cells expressing EGFR […]/T790M/[…] mutant assessed as body weight loss at 12.5 to 25 mg/kg, po bid for 5 days consecutively; assay type: organism-based; conditions: in vivo, 120 h, dose 12.5-25 mg/kg, time 5 day
[14] = Toxicity in Balb/c nude mouse allografted with mouse BaF3 cells expressing EGFR […]/T790M/[…] mutant assessed as signs of toxicity at 12.5 to 25 mg/kg, po bid for 5 days consecutively; assay type: organism-based; conditions: in vivo, 120 h, dose 12.5-25 mg/kg, time 5 day
BaF3 [15] = test: Antitumor activity against mouse BaF3 cells expressing EGFR […]/T790M/[…] mutant allografted in Balb/c nude mouse administered orally once daily for 5 days consecutively; assay type: functional, cell-based; conditions: dose 25-100 mg/kg, route po, time 5.0 day
BaF3 [16] = test: Antitumor activity against mouse BaF3 cells expressing EGFR […]/T790M/[…] mutant allografted in Balb/c nude mouse at 25 mg/kg, po qd for 5 days consecutively relative to control; assay type: functional; conditions: BaF3, 120 h, time 5 day, read-out: TGI
BaF3 [17] = test: Antitumor activity against mouse BaF3 cells expressing EGFR […]/T790M/[…] mutant allografted in Balb/c nude mouse administered orally twice daily for 5 days consecutively; assay type: functional, cell-based; conditions: dose 12.5-25 mg/kg, route po, time 5.0 day
BaF3 [18] = test: Antitumor activity against mouse BaF3 cells expressing EGFR […]/T790M/[…] mutant allografted in Balb/c nude mouse at 12.5 mg/kg, po bid for 5 days consecutively relative to control; assay type: functional; conditions: BaF3, 120 h, time 5 day, read-out: TGI
BaF3 [19] = test: Antitumor activity against mouse BaF3 cells expressing EGFR […]/T790M/[…] mutant allografted in Balb/c nude mouse at 100 mg/kg, po qd for 5 days consecutively relative to control; assay type: functional; conditions: BaF3, 120 h, time 5 day, read-out: TGI
BaF3 [20] = test: Antitumor activity against mouse BaF3 cells expressing EGFR […]/T790M/[…] mutant allografted in Balb/c nude mouse at 25 mg/kg, po bid for 5 days consecutively relative to control; assay type: functional; conditions: BaF3, 120 h, time 5 day, read-out: TGI
[21] = In vivo inhibition of phosphorylation of EGFR […]/T790M/[…] mutant at Y1068 in mouse BaF3 cells allografted in Balb/c nude mouse at 12.5 to 100 mg/kg, po measured after 6 hrs by Western blot analysis relative to control; assay type: functional; conditions: dose 12.5-100 mg/kg
[22] = Toxicity in Balb/c nude mouse allografted with mouse BaF3 cells expressing EGFR […]/T790M/[…] mutant assessed as body weight loss at 25 to 100 mg/kg, po qd for 5 days consecutively; assay type: organism-based; conditions: in vivo, 120 h, dose 25-100 mg/kg, time 5 day

In the case of CC(C)Oc1cc(Nc2ccnc(-c3cnn(S(=O)(=O)C4CC4)c3)n2)ncc1-c1cnn(C2CCOCC2)c1, the GI50 (BaF3 [1]) is reported as 46 nM and the GI50 (BaF3 [2]) is reported as 353 nM.
Work on Cc1nn([C@H]2C[C@H](C)N(C)C2)cc1-c1cnc(Nc2ccnc(-c3cnn(S(=O)(=O)C4CC4)c3)n2)cc1OC(C)C yielded a GI50 (BaF3 [1]) of 168 nM and a GI50 (BaF3 [2]) of 2290 nM.
With COc1nn(C2CCN(C)CC2)cc1-c1cnc(Nc2ccnc(-c3cnn(S(=O)(=O)C4CC4)c3)n2)cc1OC(C)C the GI50 (BaF3 [1]) was 6.5 nM, the Stability [3] was 24% and the solubility [4] was > 1100 µg/mL. The GI50 (BaF3 [2]) was 565 nM, the logD [5] was 4.4 and the fraction unbound [6] was < 0.002. For the same molecule, the Papp [7] was 3.1 ×10⁻⁶ cm/s, the Stability [8] was 48% and the GI50 (BaF3 [9]) was 18 nM. For the same molecule, the fraction unbound [10] was < 0.002 and the solubility [11] was 15 µg/mL (≈ 25.3 µM).
With CC(C)Oc1cc(Nc2ccnc(-c3cnn(S(=O)(=O)C4CC4)c3)n2)ncc1-c1cn(C2CCN(C)CC2)nc1OC(F)F the Activity [12] was “Non-Toxic”, the GI50 (BaF3 [1]) was 9.4 nM and the Stability [3] was 18%. The solubility [4] was 1200 µg/mL (≈ 1910 µM), the Activity [13] was “Non-Toxic” and the Activity [14] was “Non-Toxic”. For the same molecule, the Activity (BaF3 [15]) was “Dose-Dependent Effect”, the GI50 (BaF3 [2]) was 760 nM and the inhibition in vivo at 25 mg/kg (BaF3 [16]) was 111%. For the same molecule, the Activity (BaF3 [17]) was “Dose-Dependent Effect”, the logD [5] was 4.6 and the fraction unbound [6] was < 0.002. For the same molecule, the inhibition in vivo at 12.5 mg/kg (BaF3 [18]) was 88%, the Papp [7] was 9 ×10⁻⁶ cm/s and the inhibition in vivo at 100 mg/kg (BaF3 [19]) was 127%. The Stability [8] was 55%, the inhibition in vivo at 25 mg/kg (BaF3 [20]) was 119% and the “inhibition (INH)” value [21] was 100%. For the same molecule, the Activity [22] was “Non-Toxic”, the GI50 (BaF3 [9]) was 13 nM and the fraction unbound [10] was < 0.002.
In the case of CC(C)Oc1cc(Nc2ccnc(-c3cnn(S(=O)(=O)C4CC4)c3)n2)ncc1-c1cnn([C@H]2C[C@H](C)N(C)C2)c1, the GI50 (BaF3 [1]) is reported as 26 nM and the GI50 (BaF3 [2]) is reported as 387 nM.
For CC(C)Oc1cc(Nc2ccnc(-c3cnn(S(=O)(=O)C4CC4)c3)n2)ncc1-c1cnn(-c2ccncc2)c1, the GI50 (BaF3 [1]) was 601 nM and the GI50 (BaF3 [2]) was > 10000 nM.
With CC(C)Oc1cc(Nc2ccnc(-c3cnn(S(=O)(=O)C4CC4)c3)n2)ncc1-c1cn([C@H]2C[C@H](C)N(C)C2)nc1F the GI50 (BaF3 [1]) was 43 nM and the GI50 (BaF3 [2]) was 856 nM.
Work on CC(C)Oc1cc(Nc2ccnc(-c3cnn(S(=O)(=O)C4CC4)c3)n2)ncc1-c1cnn([C@@H]2CCN(C)C2)c1 yielded a GI50 (BaF3 [1]) of 21 nM and a GI50 (BaF3 [2]) of 318 nM.
CC(C)Oc1cc(Nc2ccnc(-c3cnn(S(=O)(=O)C4CC4)c3)n2)ncc1-c1cnn(C2CCN(C)CC2)c1 gave a GI50 (BaF3 [1]) of 9.6 nM and a GI50 (BaF3 [2]) of 203 nM.
CC(C)Oc1cc(Nc2ccnc(-c3cnn(S(=O)(=O)C4CC4)c3)n2)ncc1-c1cnn(C)c1 showed a GI50 (BaF3 [1]) of 61 nM and a GI50 (BaF3 [2]) of 879 nM.
For CC(C)Oc1cc(Nc2ccnc(-c3cnn(S(=O)(=O)C4CC4)c3)n2)ncc1-c1cnn([C@H]2CCN(C)C2)c1, the GI50 (BaF3 [1]) was 19 nM and the GI50 (BaF3 [2]) was 463 nM.
In the case of COc1nn([C@H]2C[C@H](C)N(C)C2)cc1-c1cnc(Nc2ccnc(-c3cnn(S(=O)(=O)C4CC4)c3)n2)cc1OC(C)C, the GI50 (BaF3 [1]) is reported as 12 nM, the Stability [3] is reported as 1% and the solubility [4] is reported as > 1100 µg/mL. The GI50 (BaF3 [2]) was 574 nM, the logD [5] was 5.4 and the fraction unbound [6] was < 0.002. For the same molecule, the Papp [7] was 5.2 ×10⁻⁶ cm/s, the Stability [8] was 20% and the GI50 (BaF3 [9]) was 23 nM. The fraction unbound [10] was < 0.002.
